From patent US3974157A, “1-(Amino-alkyl)-2-aryl-cyclohexane alcohols and esters” (Pennwalt Corporation, priority 1975, dated 1976)
Counter-ions that a name gives are not always drawn.

Key:
Type in all cases: in vivo
[1] = phenylbenzoquinone (PBQ) writhing method (analgesia in mice, Sigmund et al); settings: for ED50: Mus musculus
Method: (§1) Analgesia was assessed in mice utilizing the hot plate method of Eddy and Leimbach, Journal Pharmacology Expt. Therap., 107, 385, 1953, and/or the phenylbenzoquinone writhing method described by Sigmund et al, Proc. Soc. Exptl. Biol. Med., 95, 729, 1957. The hot plate method is based upon the delay in reaction time, following administration of an active analgesic when animals are placed on a heated […] plate maintained at constant temperature. Thus, the numbers of mice showing elevation of response times over control values after administration of various doses of an unknown compound are used to determine the median effective dose (ED50), which is that dose affecting 50% of the animals. The writhing method is based upon inhibition by an analgesic of the response which occurs when the chemical agent phenylbenzoquinone is injected intraperitoneally. This response is characterized by a twisting or stretching of the body and is referred to as writhing. Following administration of an analgesic or unknown compound into mice, the numbers of animals not responding to the phenylbenzoquinone challenge by writhing are determined.

[2] = system: arrhythmia produced in dogs or cats by ouabain; test: anti-arrhythmic activity: preventing or reversing the arrhythmia produced by ouabain; settings: for Arrhythmia Reversal Time: ouabain arrhythmia
Method: Anti-arrhythmic activity was determined by measuring the effect of the test compound in preventing or reversing the arrhythmia produced in dogs or cats by ouabain. In the test method, the animal was pretreated with 10 mg/kg (i.v.) of the test compound. The animal was then given 15 micrograms/kg of ouabain (i.v.) followed by doses of 10 micrograms/kg of ouabain at 15-minute intervals (the last dose of ouabain could be less than 10 micrograms/kg) until an arrhythmia was produced which lasted for 10 minutes. The animal was then given 5 mg/kg (i.v.) of test compound. If the arrhythmia was not reversed after 3 minutes, 1 mg/kg of xylocaine was given (i.v.) to reverse the arrhythmia. If the arrhythmia was reversed within 3 minutes by the test compound, the period of time during which the test compound effected reversal was measured (Arrythmia Reversal Time).

[3] = hot plate method (analgesia in mice, Eddy and Leimbach); settings: Mus musculus
Method: as §1

[4] = system: arrhythmia produced in dogs or cats by ouabain; test: anti-arrhythmic activity: preventing or reversing the arrhythmia produced by ouabain; settings: amount compound 4 mg/kg
[5] = po, mice, phenylbenzoquinone writhing, oral route, read-out: Analgesic Tests ED50 PBQ P.O.
[6] = sc, mice, phenylbenzoquinone writhing, subcutaneous route, read-out: Analgesic Tests ED50 PBQ S.C.
[7] = ouabain given i.v. until an arrhythmia lasting 10 minutes, after 10 mg/kg i.v. pretreatment with test compound
[8] = dogs or cats, amount compound 5 mg/kg
[9] = ip, mice, intraperitoneal route, read-out: Analgesic Tests ED50 Hot Plate I.P.
[10] = mice, oral route, read-out: Analgesic Tests ED50 Hot Plate P.O.
[11] = mice, phenylbenzoquinone writhing, oral route
[12] = mice, phenylbenzoquinone writhing, subcutaneous route

Compound: C=CCN(CC=C)CC(C)C1(OC(C)=O)CCCCC1c1ccccc1 (stereo not drawn) [Example XVI, 1-(2-Diallylamino-1-methylethyl)-2-phenylcyclohexyl acetate]
- ED50 [1, 5]: > 30 mg/kg
- ED50 [1, 6]: > 3 mg/kg

Compound: CC(N(C)C)C1(O)CCCCC1c1ccccc1.Cl (stereo not drawn) [Example XXVII, 1-(1-Dimethylaminoethyl)-2-phenylcyclohexanol hydrochloride]
- ED50 [1, 5]: > 100 mg/kg
- ED50 [1, 6]: > 100 mg/kg

Compound: CNC(C)C1(O)CCCCC1c1ccccc1.Cl (stereo not drawn) [XXIV, 1-(1-Methylaminoethyl)-2-phenylcyclohexanol hydrochloride]
- ED50 [1, 5]: > 100 mg/kg
- ED50 [1, 6]: > 30 mg/kg
- prevention of arrhythmia by pretreatment ([2]; dogs or cats, 10 mg/kg pretreatment, then ouabain): prevented arrhythmia
- Amount Ouabain [2, 7]: 140 µg/kg

Compound: CC(=O)OC1(CCN(C)C)CCCCC1c1ccccc1 (stereo not drawn) [Example XV, 1-(2-Dimethylaminoethyl)-2-phenylcyclohexyl acetate cyclohexylsulfamate]
- ED50 [1, 5]: > 30 mg/kg
- ED50 [1, 6]: > 10 mg/kg

Compound: CC(=O)OC1(C(C)CN(C)C)CCCCC1c1ccc(O)cc1.Cl (stereo not drawn) [XXXI, 1-(2-Dimethylamino-1-methylethyl)-2-(p-hydroxyphenyl)cyclohexyl acetate hydrochloride]
- ED50 [1, 5]: > 100 mg/kg
- ED50 [1, 6]: > 100 mg/kg

Compound: CC(N)C1(O)CCCCC1c1ccccc1.Cl (stereo not drawn) [Example XXIII, 1-(1-Aminoethyl)-2-phenylcyclohexanol hydrochloride]
- ED50 [1, 5]: > 100 mg/kg
- ED50 [1, 6]: > 30 mg/kg
- Arrhythmia Reversal Time [2, 8]: 5 min
- Amount Ouabain [2, 7]: 95 µg/kg

Compound: CC(CN(C)C)C1(O)CCCCC1c1ccccc1 (stereo not drawn) [Example XI, 1-(2-Dimethylamino-1-methylethyl)-2-phenylcyclohexanol-p-toluenesulfonate]
- ED50 [3, 9]: 32 mg/kg
- ED50 [3, 10]: 56 mg/kg
- Arrhythmia Reversal Time [4]: 5 min
- ED50 [1, 5]: 56 mg/kg
- Amount Ouabain [2, 7]: 88 µg/kg

Compound: CN(C)CCC1(O)CCCCC1c1ccccc1 (stereo not drawn) [Example XIV, 1-(2-Dimethylaminoethyl)-2-phenylcyclohexanol]
- ED50 [1, 5]: > 100 mg/kg
- ED50 [1, 6]: ~30 mg/kg

Compound: CC(=O)OC1(C(C)N(C)C)CCCCC1c1ccccc1 (stereo not drawn) [XXVIII, 1-(1-Dimethylaminoethyl)-2-phenylcyclohexyl acetate cyclohexylsulfamate]
- ED50 [1, 5]: > 30 mg/kg
- ED50 [1, 6]: > 10 mg/kg

Compound: CC(=O)OC1(C(C)CN2CCCC2)CCCCC1c1ccccc1.O=S(=O)(O)O (stereo not drawn) [Example XXII, 1-(1-Methyl-2-pyrrolidinoethyl)-2-phenylcyclohexyl acetate sulfate]
- ED50 [1, 5]: > 30 mg/kg
- ED50 [1, 6]: ~10 mg/kg

Compound: CNCC(C)C1(O)CCCCC1c1ccccc1.Cl (stereo not drawn) [Example XXVI, 1-(2-Methylamino-1-methylethyl)-2-phenylcyclohexanol hydrochloride]
- ED50 [1, 5]: > 30 mg/kg
- ED50 [1, 6]: > 10 mg/kg

Compound: CCOC(=O)C1(c2ccccc2)CCN(C)CC1 [Meperidine, reference compound]
- ED50 [3, 9]: 5.8 mg/kg
- ED50 [3, 10]: 81 mg/kg
- ED50 [1, 5]: 18 mg/kg
- ED50 [1, 6]: 1.7 mg/kg

Compound: CC(CN(C)C)C1(O)CCCCC1c1ccc(O)cc1 (stereo not drawn) [Example XXX, 1-(2-Dimethylamino-1-methylethyl)-2-(p-hydroxyphenyl)-cyclohexanol]
- ED50 [1, 5]: > 100 mg/kg
- ED50 [1, 6]: > 30 mg/kg

Compound: CC(=O)OC1(C(C)CN2CCOCC2)CCCCC1c1ccccc1.Cl (stereo not drawn) [XIX, 1-(1-Methyl-2-morpholinoethyl)2-phenylcyclohexyl acetate hydrochloride]
- ED50 [1, 5]: 40 mg/kg
- ED50 [1, 6]: 56.2 mg/kg

Compound: COc1ccc(C2CCCCC2(OC(C)=O)C(C)CN(C)C)cc1OC.Cl (stereo not drawn) [XXXIII, 2-(3,4-Dimethoxyphenyl)-1-(2-dimethylamino-1-methylethyl)cyclohexyl acetate hydrochloride]
- ED50 [1, 5]: > 100 mg/kg
- ED50 [1, 6]: > 30 mg/kg
- Arrhythmia Reversal Time [2, 8]: 30 min
- Amount Ouabain [2, 7]: 70 µg/kg

Compound: CC(=O)OC1(C(C)CN(C)C)CCCCC1c1ccccc1 (single isomer, unassigned; (-)) [Example IX, (-)-1-(2-Dimethylamino-1-methylethyl)-2-phenylcyclohexyl acetate]
- Analgesic Tests ED50 PBQ P.O. [1, 11]: 16 mg/kg
- Analgesic Tests ED50 PBQ S.C. [1, 12]: 2.15 mg/kg

Compound: CC(=O)OC1(C(C)CN2CCCCC2)CCCCC1c1ccccc1.Cl (stereo not drawn) [XII, 1-(1-Methyl-2-piperidinoethyl)-2-phenylcyclohexyl acetate hydrochloride]
- ED50 [1, 5]: ~60 mg/kg
- ED50 [1, 6]: ~30 mg/kg

Compound: CN1CC[C@]23c4c5ccc(O)c4O[C@H]2[C@@H](O)C=C[C@H]3[C@H]1C5 [Morphine, reference compound]
- ED50 ([3]; ip, read-out: Analgesic Tests ED50 Hot Plate I.P.): 1.8 mg/kg
- ED50 ([3]; po, read-out: Analgesic Tests ED50 Hot Plate P.O.): 18 mg/kg
- ED50 ([1]; po, read-out: Analgesic Tests ED50 PBQ P.O.): 2.6 mg/kg
- ED50 ([1]; sc, read-out: Analgesic Tests ED50 PBQ S.C.): 0.5 mg/kg

Compound: COc1ccc(C2CCCCC2(OC(C)=O)C(C)CN(C)C)cc1 (stereo not drawn) [Example XXV, 1-(2-Dimethylamino-1-methylethyl)-2-(p-methoxyphenyl)-cyclohexylacetate hydrochloride]
- ED50 [1, 5]: > 100 mg/kg
- ED50 [1, 6]: > 30 mg/kg

Compound: C=CCN(C)CC(C)C1(OC(C)=O)CCCCC1c1ccccc1 (stereo not drawn) [XIII, 1-(2-Allylmethylamino-1-methylethyl)-2-phenylcyclohexyl acetate]
- ED50 [1, 5]: ~100 mg/kg
- ED50 [1, 6]: ~30 mg/kg

Compound: COc1ccc(C2CCCCC2(O)C(C)CN(C)C)cc1.Cl (stereo not drawn) [Example XVII, 1-(2-Dimethylamino-1-methylethyl)-2-(p-methoxyphenyl)-cyclohexanol hydrochloride]
- ED50 [1, 5]: > 100 mg/kg
- ED50 [1, 6]: > 30 mg/kg
- Arrhythmia Reversal Time [2, 8]: 30 min
- Amount Ouabain [2, 7]: 80 µg/kg

Compound: CC(=O)OC1(C(C)CN(C)C)CCCCC1c1ccccc1 (single isomer, unassigned; (+)) [Example X, (+)-1-(2-Dimethylamino-1-methylethyl)-2-phenylcyclohexyl acetate]
- Analgesic Tests ED50 PBQ P.O. [1, 11]: > 100 mg/kg
- Analgesic Tests ED50 PBQ S.C. [1, 12]: 16.5 mg/kg

Compound: COc1ccc(C2CCCCC2(O)C(C)CN(C)C)cc1OC (stereo not drawn) [XXXII, 2-(3,4-Dimethoxyphenyl)-1-(2-dimethylamino-1-methylethyl)cyclohexanol p-toluenesulfonate]
- ED50 [1, 5]: > 100 mg/kg
- ED50 [1, 6]: ~30 mg/kg

Compound: CCC(=O)OC1(C(C)CN(C)C)CCCCC1c1ccccc1 (single isomer, unassigned) [Example I (a), 1-(2-Dimethylamino-1-methylethyl)-2-phenylcyclohexyl propionate maleate (Major Isomer)]
- ED50 [3, 9]: > 40 mg/kg
- ED50 [3, 10]: > 100 mg/kg
- ED50 [1, 5]: 100 mg/kg

Compound: CCN(CC)CC(=O)Nc1c(C)cccc1C [Lidocaine, reference compound]
- Amount Ouabain ([2]; control (Lidocaine) line): 60 to 130 µg/kg
- Arrhythmia Reversal Time ([2]; dogs or cats, control, amount compound 1-2 mg/kg): 1 to 3 min

Compound: CC(=O)OC1(C(C)CN2CCN(c3ccccc3)CC2)CCCCC1c1ccccc1.Cl (stereo not drawn) [Example XXI, 1-(1-Methyl-2-[4-phenyl-1-piperazinyl]ethyl)-2-phenylcyclohexyl acetate hydrochloride]
- ED50 [1, 5]: 5.9 mg/kg
- ED50 [1, 6]: > 100 mg/kg

Compound: CC(=O)OC1(C(C)CN(C)C)CCCCC1c1ccccc1 (single isomer, unassigned) [Example I (c), 1-(2-Dimethylamino-1-methylethyl)-2-phenylcyclohexyl acetate maleate (Major Isomer)]
- ED50 [3, 9]: 10 mg/kg
- ED50 [3, 10]: 40 mg/kg
- Arrhythmia Reversal Time [4]: 30 min
- Analgesic Tests ED50 PBQ P.O. [1, 11]: 20 mg/kg
- Analgesic Tests ED50 PBQ S.C. [1, 12]: 3.8 mg/kg
- Amount Ouabain [2, 7]: 85 µg/kg

Compound: CC(CN1CCCC1)C1(O)CCCCC1c1ccccc1 (stereo not drawn) [Example III, 1-(1-Methyl-2-pyrrolidinoethyl)-2-phenylcyclohexanol]
- ED50 [1, 5]: > 100 mg/kg
- ED50 [1, 6]: ~30 mg/kg
- Arrhythmia Reversal Time [2, 8]: 5 min
- Amount Ouabain [2, 7]: 100 µg/kg
